In article PMC7738869, “A novel STAT3 inhibitor W2014-S regresses human non-small cell lung cancer xenografts and sensitizes EGFR-TKI acquired resistance” (Theranostics, 2021):
pIC50, pKd: −log10 of the molar value.

Columns and labels:
PC-9/GR cells = test: Cell apoptosis assay (Annexin V-FITC/PI flow cytometry), PC-9/GR; format: cell-based, human; conditions: gefitinib 2 μM and/or W2014-S 1 μM, 72 h
Procedure: Briefly, aliquots of 2 × 10^5 cells were seeded into 6-well plates and incubated for 24 h at 37 °C. […] After trypsinization and gently washing cells once with medium, the cells were washed twice with cold PBS. The precipitation was resuspended by 400 μL of 1 × binding buffer, and then resuspended cells were transferred into new 1.5 mL EP tubes. Then 3 μL of Annexin V-FITC and 5 μL of propidium iodide were added to the resuspended cells with further incubation at room temperature for 15 min in the dark. The analysis was done on Guava easyCyte (USA) and FlowJo 7.6 software.

PC-9/GR xenografts = conditions: gefitinib intragastric 20 mg/kg per day, W2014-S 10 mg/kg/day, 21 d
Procedure: For PDX model, the PDX sample was from The Jackson Laboratory. […] The tumor sample were cut into approximately 1 mm^3, and the tissue was pushed under skin of mice by TROCHAR. When tumor volumes reached approximately 100 mm^3, mice were randomly distributed into groups of 7 mice. […] Tumor size was measured every two days by vernier caliper. The average tumor volume in each group was calculated based on the equation for a prolate spheroid (tumor volume = (short-diameter)^2 × large-diameter × π / 6 ) and expressed in mm^3.

A549 cells [1] = test: Transwell cell invasion assay, A549; conditions: A549, 1 μM
Procedure: Transwell invasion assays were performed as previously reported [37] using Transwell chamber (Costar, USA). […] Data from triplicates experiments were pooled and plotted as shown.

A549 cells [2] = test: Wound healing assay for migration; format: cell-based, human; conditions: 48 h
Procedure: The motility of cells was measured by wound healing assay. Cells were seeded into 6-well plates and cultured to 90-100% confluent after 24 h. Wounds were made in each well of 6-well plates using pipette tips. […] The migration of cells was visualized under a microscope (4 ×, Nikon, Japan) and photographed in different time points (0 and 48 h).

[3] = biological target: full-length wild-type STAT3 (Homo sapiens, UniProt P40763); test: Surface plasmon resonance analysis of binding to STAT3; conditions: SPR
full-length wild-type STAT3, sequence (P40763 whole entry): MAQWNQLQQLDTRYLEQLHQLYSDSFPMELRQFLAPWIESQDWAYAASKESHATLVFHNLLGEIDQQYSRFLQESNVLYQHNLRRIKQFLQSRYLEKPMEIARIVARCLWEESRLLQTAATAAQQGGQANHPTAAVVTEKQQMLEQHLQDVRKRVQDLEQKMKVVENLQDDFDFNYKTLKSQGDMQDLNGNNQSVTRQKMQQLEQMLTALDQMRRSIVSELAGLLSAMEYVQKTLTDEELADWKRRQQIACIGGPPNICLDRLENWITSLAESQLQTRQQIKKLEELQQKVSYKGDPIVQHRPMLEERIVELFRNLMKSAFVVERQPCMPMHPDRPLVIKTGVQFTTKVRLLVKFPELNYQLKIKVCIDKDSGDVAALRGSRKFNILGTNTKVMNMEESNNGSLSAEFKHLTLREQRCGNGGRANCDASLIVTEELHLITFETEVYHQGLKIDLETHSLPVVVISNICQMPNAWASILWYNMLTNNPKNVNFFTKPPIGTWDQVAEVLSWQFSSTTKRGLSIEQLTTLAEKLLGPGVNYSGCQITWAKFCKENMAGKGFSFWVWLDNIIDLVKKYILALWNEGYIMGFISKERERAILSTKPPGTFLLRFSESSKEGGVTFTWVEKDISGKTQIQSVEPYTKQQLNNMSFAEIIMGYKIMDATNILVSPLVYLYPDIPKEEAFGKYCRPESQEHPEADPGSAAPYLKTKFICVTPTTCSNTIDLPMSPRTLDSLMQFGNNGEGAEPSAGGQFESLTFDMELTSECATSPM
Procedure: Biacore 8K and Biacore Insight Evaluation software were used to analyze the interaction between the agents and the protein full-length wild-type STAT3 to detect the binding affinity. Purified STAT3 (100 μg/mL) without Tris and glycerin was injected onto the CM5 Chip (GE, USA) for immobilization. Several concentrations of W2014-S or W2014-R dissolved in running buffer (1×PBS with filtration, 0.01% DMSO) were flown over the chip to produce response signals. The kinetics and affinities were calculated by the Biacore Insight Evolution software, and the results were determined as the binding affinity (KD).

PC-9 cells [4] = test: Cell viability assay (CCK-8), PC-9; format: cell-based; conditions: Homo sapiens, PC-9, 72 h, read-out: IC50 cell proliferation
Procedure: (§1) Cell proliferation was measured using the Cell Counting Kit-8 (CCK-8, B34304, Bimake, USA). A549 (2 × 10^3/100 μL/well), PC-9 (3 × 10^3/100 μL/well) or PC-9/GR cells (3 × 10^3/100 μL/well) were plated into each well of 96-well plates (Costar, USA). […] Then, 10 μL of CCK-8 was added to each well, and cells were incubated for 1-4 h until the color of untreated controls turned to orange. The absorbance (A) was measured by a microplate reader (FLUOstar Omega-ACU, USA) at test and reference wavelengths of 450 nm. The percentage of growth was calculated as Cell viability (%) = [A (Compound +) - A (Blank) ] / [A (Compound -) - A (Blank) ] × 100%. Cell viability meant proliferation of cells. Each experiment was done at least in triplicate, and thrice independently.

PC-9 cells [5] = test: Colony formation assay, PC-9; format: cell-based, human; conditions: PC-9, as low as 0.3 μM
A549 cells [6] = test: Colony formation assay, A549; format: cell-based, human; conditions: A549, as low as 0.3 μM
A549 cells [7] = test: Cell viability assay (CCK-8), A549; format: cell-based; conditions: Homo sapiens, A549, 72 h, read-out: IC50 cell proliferation
Procedure: as §1

COc1cc2ncnc(Nc3ccc(F)c(Cl)c3)c2cc1OCCCN1CCOCC1 [Gefitinib, reference compound]
Q1 (PC-9/GR cells): 0.103%
Q2 (PC-9/GR cells): 4.61%
Q3 (PC-9/GR cells): 3.05%
Q4 (PC-9/GR cells): 92.2%
xenograft tumor growth (PC-9/GR xenografts): slight inhibitory effect

C[C@@H](Oc1ccc(-c2nc3nc(C4=CCN(C(=O)OC(C)(C)C)CC4)ccc3[nH]2)cc1)c1ccccc1 [W2014-R]
cell invasion (A549 cells [1]): not
cell migration (A549 cells [2]): slightly inhibition
pKd [3]: 5.47
pIC50 (PC-9 cells [4]): 5.58
colony formation (PC-9 cells [5]): significantly suppressed the colony formation
colony formation (A549 cells [6]): significantly suppressed the colony formation
pIC50 (A549 cells [7]): 5.62
